System: phospholipase D
Test: Substrate specificity of phospholipase D (choline release, choline oxidase/peroxidase colorimetry at 500 nm)
Format: biochemical, Streptomyces chromofuscus
Settings: substrate emulsion 10 mM, 0.1 ml; 37°C, 10 minutes, pH 8.0; relative to activity on lysolecithin as 100
Description: To the reaction mixture having a composition as above was added 0.05 ml of the enzyme solution. After reaction it 37°C for 10 minutes, the mixture was boiled for 5 minutes to stop the reaction. The reaction solution was cooled to 37°C. Then, 0.1 ml of 4-aminoantipyrine (3 mg/ml), 0.1 ml of Phenol (2 mg/ml), 0.1 ml of peroxidase (2 U/ml), 0.1 ml of choline oxidase (30 U/ml) and 0.1 ml of water were added to the solution, the reaction was conducted at 37°C for 20 minutes before adding 2 ml of 1% Triton X100 to the reaction mixture for measuring the absorbance at 500 nm. It is defined that 1 Unit (U) of phospholipase D has an enzyme activity of producing 1 […] of choline. The enzyme activity is calculated from the following equation: U/ml = ΔA₅₀₀ x 0.55 [formula] wherein ΔA₅₀₀ denotes the absorbance at 500 nm.
The same procedure as described above for the reaction solution for the measurement of the activity was repeated except that emulsions (10 mM, 0.1 ml) of lecithin, lysolecithin and sphingomyelin, respectively, as substrates were used. The amount of choline was determined, and the relative enzyme activities are calculated in terms of the enzyme activity to lysolecithin as 100.

Substance | Relative Activity [%]
Lysolecithin | 100
Sphingomyelin | 19
phosphatidylcholine [Lecithin] | 51

From EP0435725B1, “DNA having the genetic information of phospholipase D and its use” (Asahi Kasei Kogyo Kabushiki Kaisha, priority 1989, dated 1991)
